Experimental findings from patent publication US20180093951A1, “PESTICIDALLY ACTIVE CAR[…] THIOCAR[…] DERIVATIVES” (Syngenta Participations AG, priority 2015, published 2018) are described below.

The term melting point denotes the temperature, or range, at which the solid turns liquid. By mortality is commonly meant the share of the test organisms that died. Read a high mortality as fewer survivors.

Where only a bound is given, the exact number is not on record here.

The test system of one series is Plutella Xylostella. Description: Plutella xylostella (diamond back moth) artificial diet test. Type of series: in vivo. Particulars: 120 h, application rate of 200 ppm, L2 larvae, 5 days after infestation, read-out: effect in at least one of the two categories (mortality or growth inhibition). As to the method: Example B2: Plutella Xylostella (Diamond Back Moth)
24-well microtiter plates with artificial diet were treated with aqueous test solutions prepared from 10,000 ppm DMSO stock solutions by pipetting. After drying, the plates were infested with L2 larvae (10 to 15 per well). The samples were assessed for mortality and growth inhibition in comparison to untreated samples 5 days after infestation.
The following compounds gave an effect of at least 80% in at least one of the two categories (mortality or growth inhibition) at an application rate of 200 ppm: P1, P2, P3, P5, P10, P11, P14 and P20.

The test system of another series is Diabrotica Balteata. Nature of the series: Diabrotica balteata (corn root worm) maize sprout test. Type of series: in vivo. Particulars: 96 h, application rate of 200 ppm, L2 larvae, 4 days after infestation, read-out: effect in at least one of the two categories (mortality or growth inhibition). As to the method: Example B3: Diabrotica Balteata (Corn Root Worm)
Maize sprouts, placed on an agar layer in 24-well microtiter plates were treated with aqueous test solutions prepared from 10,000 ppm DMSO stock solutions by spraying. After drying, the plates were infested with L2 larvae (6 to 10 per well). The samples were assessed for mortality and growth inhibition in comparison to untreated samples 4 days after infestation.
The following compounds gave an effect of at least 80% in at least one of the two categories (mortality or growth inhibition) at an application rate of 200 ppm: P1, P2, P3, P4, P5, P10 and P14.

A further series deals with Spodoptera littoralis. Nature of the series: Spodoptera littoralis (Egyptian cotton leaf worm) cotton leaf disc spray test. The series is classed as in vivo. Particulars: foliar, 72 h, application rate of 200 ppm, L1 larvae, 3 days after infestation, read-out: control (at least one of mortality, anti-feedant effect, growth inhibition). As to the method: Example B1: Spodoptera littoralis (Egyptian Cotton Leaf Worm)
Cotton leaf discs were placed on agar in 24-well microtiter plates and sprayed with aqueous test solutions prepared from 10,000 ppm DMSO stock solutions. After drying, the leaf discs were infested with five L1 larvae. The samples were assessed for mortality, anti-feedant effect, and growth inhibition in comparison to untreated samples 3 days after infestation. Control of Spodoptera littoralis by a test sample is when at least one of mortality, anti-feedant effect, and growth inhibition is higher than the untreated sample.

Another series concerns Tetranychus Urticae. Nature of the series: Tetranychus urticae (two-spotted spider mite) feeding/contact activity on bean leaf discs. The series is classed as in vivo. Particulars: foliar, 192 h, application rate of 200 ppm, mixed population (mobile stages), 8 days after infestation. As to the method: Example B4: Tetranychus Urticae (Two-Spotted Spider Mite) (Feeding/Contact Activity)
Bean leaf discs on agar in 24-well microtiter plates were sprayed with aqueous test solutions prepared from 10′000 ppm DMSO stock solutions. After drying the leaf discs were infested with a mite population of mixed ages. The samples were assessed for mortality on mixed population (mobile stages) 8 days after infestation.

Regarding `C/C(=N\OC(=O)Nc1ccccc1C(C)C)c1ccc(-c2ncn(-c3ccc(OC(F)(F)F)cc3)n2)cc1` [Compound P3], the percent effect (mortality or growth inhibition) at 200 ppm in the series with Plutella Xylostella and in the series on Diabrotica Balteata was not below 80% in each case. In the case of `Cc1cccc(C)c1NC(=O)O/N=C/c1ccc(-c2ncn(-c3ccc(OC(F)(F)F)cc3)n2)cc1` [Compound P14], the percent effect (mortality or growth inhibition) at 200 ppm in the series on Plutella Xylostella and with Diabrotica Balteata was not below 80% throughout. Take `CC/C(=N\OC(=O)Nc1ccccc1C(C)C)c1ccc(-c2ncn(-c3ccc(OC(F)(F)F)cc3)n2)cc1`: the melting point lay within 170 to 171 °C. `Cc1cccc(C)c1NC(=O)O/N=C/c1ccc2c(c1)nc(-c1ccc(OC(F)(F)F)cc1)n2C` showed a melting point of 68 to 124 °C. For `C/C(=N\OC(=O)Nc1c(C)cccc1C)c1ccc(-c2ncn(-c3ccc(OC(F)(F)F)cc3)n2)cc1` [Compound P5], the percent control (mortality, anti-feedant effect or growth inhibition) at 200 ppm with Spodoptera littoralis is not below 80%. The percent effect (mortality or growth inhibition) at 200 ppm in the series on Plutella Xylostella and in the series on Diabrotica Balteata was not below 80% in each case. The molecule `O=C(Nc1ccccc1)O/N=C/c1ccc(-c2ncn(-c3ccc(OC(F)(F)F)cc3)n2)cc1` displayed a melting point of 174 to 180 °C. The molecule `O=C(Nc1cscc1Br)O/N=C/c1ccc(-c2ncn(-c3ccc(OC(F)(F)F)cc3)n2)cc1` showed a melting point of 197 to 198 °C. With `COc1ccccc1NC(=O)O/N=C/c1ccc(-c2ncn(-c3ccc(OC(F)(F)F)cc3)n2)cc1`, the melting point fell in the range of 182 to 183 °C. The same measure, in the same setting: the same measure for `CC(C)c1ccccc1NC(=O)O/N=C/c1ccc2c(c1)nc(-c1ccc(OC(F)(F)F)cc1)n2C`: 93 to 130 °C.

With `Cc1cccc(C)c1NC(=O)O/N=C/c1ccc2sc(-c3ccc(OC(F)(F)F)cc3)nc2c1` [Compound P17], in the series on Spodoptera littoralis, the percent control (mortality, anti-feedant effect or growth inhibition) at 200 ppm was not below 80%. `O=C(Nc1ccc(Cl)cc1Cl)O/N=C/c1ccc(-c2ncn(-c3ccc(OC(F)(F)F)cc3)n2)cc1` showed a melting point of 179 to 182 °C. As for `Cc1cccc(C)c1NC(=O)O/N=C/c1ccc2c(c1)C(=O)N(c1ccc(OC(F)(F)F)cc1)C2=O`, the melting point was 247 to 248 °C.

Take `O=C(Nc1ccc(Cl)nc1)O/N=C/c1ccc(-c2ncn(-c3ccc(OC(F)(F)F)cc3)n2)cc1` [Compound P20]: the percent control (mortality, anti-feedant effect or growth inhibition) at 200 ppm in the series with Spodoptera littoralis is not below 80%. Further, the percent effect (mortality or growth inhibition) at 200 ppm with Plutella Xylostella is not below 80%. Moreover, the mortality at 200 ppm in the series with Tetranychus Urticae was not below 80%.

Turning to `CC(C)c1ccccc1NC(=O)O/N=C/c1ccc(-c2ncn(-c3ccc(OC(F)(F)F)cc3)n2)cc1` (single isomer, unassigned) [Compound P2, [(E)-[4-[1-[4-(trifluoromethoxy)phenyl]-1,2,4-triazol-3-yl]phenyl]methyleneamino] N-(2-isopropylphenyl) carbamate], the percent control (mortality, anti-feedant effect or growth inhibition) at 200 ppm with Spodoptera littoralis was not below 80%. Besides, the percent effect (mortality or growth inhibition) at 200 ppm in the series with Plutella Xylostella and with Diabrotica Balteata was not below 80% throughout. For the molecule `CC(C)c1ccccc1NC(=O)O/N=C\c1ccc(-c2ncn(-c3ccc(OC(F)(F)F)cc3)n2)cc1` (single isomer, unassigned) [Compound P1, [(Z)-[4-[1-[4-(trifluoromethoxy)phenyl]-1,2,4-triazol-3-yl]phenyl]methyleneamino] N-(2-isopropylphenyl) carbamate], the percent control (mortality, anti-feedant effect or growth inhibition) at 200 ppm with Spodoptera littoralis is not below 80%. Also, the percent effect (mortality or growth inhibition) at 200 ppm with Plutella Xylostella and in the series on Diabrotica Balteata was not below 80% in each case.

Turning to `CC/C(=N\OC(=O)Nc1c(C)cccc1C)c1ccc(-c2ncn(-c3ccc(OC(F)(F)F)cc3)n2)cc1` [Compound P10], the percent control (mortality, anti-feedant effect or growth inhibition) at 200 ppm in the series with Spodoptera littoralis is not below 80%. Also, the percent effect (mortality or growth inhibition) at 200 ppm in the series on Plutella Xylostella and with Diabrotica Balteata was not below 80% throughout. As to `O=C(Nc1ccccc1C(F)(F)F)O/N=C/c1ccc(-c2ncn(-c3ccc(OC(F)(F)F)cc3)n2)cc1`, the melting point is 179 to 180 °C.

Molecule `O=C(Nc1ccccc1Cl)O/N=C/c1ccc(-c2ncn(-c3ccc(OC(F)(F)F)cc3)n2)cc1` came in with a melting point of 183 to 184 °C. In the case of `C/C(=N\OC(=O)Nc1ccccc1C(F)(F)F)c1ccc(-c2ncn(-c3ccc(OC(F)(F)F)cc3)n2)cc1` [Compound P4, [1-[4-[1-[4-(trifluoromethoxy)phenyl]-1,2,4-triazol-3-yl]phenyl]ethylideneamino]N-[2-(trifluoromethyl)phenyl]carbamate], the percent effect (mortality or growth inhibition) at 200 ppm with Diabrotica Balteata is not below 80%. Regarding `Cc1cccc(C)c1NC(=O)O/N=C/c1ccc2nc(-c3ccc(OC(F)(F)F)cc3)n(C)c2c1`, the melting point lay in the range of 68 to 124 °C.

In turn, `CC(C)c1ccccc1NC(=O)O/N=C/c1ccc2nc(-c3ccc(OC(F)(F)F)cc3)n(C)c2c1` registered a melting point of 98 to 130 °C.

For the molecule `Cc1cccc(C)c1NC(=O)O/N=C/CCc1ccc(-c2ncn(-c3ccc(OC(F)(F)F)cc3)n2)cc1` [Compound P11], the percent effect (mortality or growth inhibition) at 200 ppm in the series on Plutella Xylostella was not below 80%.

In the series on Tetranychus Urticae, `Cc1cc(NC(=O)O/N=C/c2ccc(-c3ncn(-c4ccc(OC(F)(F)F)cc4)n3)cc2)c(C(F)(F)F)o1` [Compound P19] yielded a mortality at 200 ppm not below 80%. Molecule `CC/C(=N\OC(=O)Nc1ccccc1C(F)(F)F)c1ccc(-c2ncn(-c3ccc(OC(F)(F)F)cc3)n2)cc1` came in with a melting point of 151 to 154 °C.
